# Experimental data from patent US12648565B2, “Post-emergence herbicide” (Belvedere Foliar LLC, priority 2017, dated 2026).
# Legend:
# [1] = test system: Pasture Blend 1, Pasture blend 2, Cineraria meritima (Dusty miller) (plants 21, 22, 10); test: Trial 14: greenhouse foliar spray trial, visual toxicity scoring; format: in vivo, pasture seed blend
# Description: (§1) The majority of greenhouse trials conducted to date have been of one basic design: • 1. Samples of different species of flowering plant and grass are exposed to different formulations of the herbicide in accordance with some embodiments, prepared in a range of concentrations, in combination with potentially suitable adjuvants, and applied as an aquatic spray. Experimental plants are purchased either from a local nursery, grown from ornamental and weed seed packs, or grown from seeds of a custom blend prepared specifically for this project and listed in Table 4B. The experimental variable in a typical test is the molar mass concentration of the nutrient salt being examined. Other factors including pH, nitrogen source, and the amount and composition of surfactant or penetrant are constants within a trial except when one of these factors is itself the variable of interest in the experiment. Experiments are controlled unless irrelevant for a particular test. • 2. Standard techniques to reduce experimental error are employed including use of controls; standard spray application pressures; standardized growing conditions, growing medium, containers, and source irrigation water; and preparation and shipping of samples for laboratory analysis according to required standard laboratory protocols. • 3. Plants are sprayed with the experimental formulation, always in late afternoon (greenhouse tests), or in early morning (field tests), are observed over as many as several weeks, and their visible state of decline scored by the same examiner on a 9 points system relying on visual effects of toxicity. (Table 5.)
# (§2) Scores of half-value are also used: 0, 0.5, 1.0, 1.5, 2.0, 2.5, etc. • 4. The estimated successful herbicidal effectiveness of a formulation was determined from a combination of averaged and cumulative scores of 4.0 to 5.0 observed approximately 14 days or longer after application: “All leaves and flowers if present desiccated, browned, wilted, and stems or blades lodged; no green tissue visible; no regrowth from roots visible.”
# In Trial 14, the herbicides comprised K-acetate; molarity 2.0, 1.5, 1.0; pH approx. 5.3 by glacial acetic acid, and a proprietary adjuvant mix. Ref. Lab-1, p. 113. Test plants (ref. Tables 4A and 4B): P1, P2, P10.
# [2] = test system: Pasture Blend 2, Gazania rigens, Fragaria x ananassa (Strawberry), Nemophila menziesii discoidalis (plants 22, 15, 13, 19); test: Trial 22: greenhouse foliar spray trial, visual toxicity scoring; format: in vivo
# Description: as §1, §2
# In Trial 22, the herbicides comprised K-acetate; molarity range 1.0-2.0; pH approx. 5.0 with succinic acid; proprietary adjuvant mix.
# [3] = test system: Pasture Blend 2, Gazania rigens, Fragraria x ananassa (Strawberry), Nemophila menziesii discoidalis (plants 22, 15, 13, 19); test: Trial 25: greenhouse foliar spray trial at four acidities, visual toxicity scoring; format: in vivo; conditions: molarity 1.5, test conclusion on Day 5
# Description: as §1, with “Standard techniques to reduce experimental error are employed including use of controls; standard spray application pressures; standardized growing conditions, growing medium, containers, and source irrigation water; and preparation and shipping of samples for laboratory analysis according to required standard laboratory protocols. • 3.” left out, “(Table 5.)” left out
# [4] = test system: Pasture Blend 2, Allium ampeloprasum (Leek), Brassica oleracea (Kale), Lantana camara, Pisum sativum var. saccharatum (Snow pea) (P2, 1, 5, 16, 23); test: Trial 31A: greenhouse foliar spray trial, adjuvant mix A, visual toxicity scoring; format: in vivo; conditions: 1.0M; by Day 20
# Description: (§3) The plants were numbered 22, 1, 5, 16, and 23, corresponding to Pasture blend 2, Brassica oleracea (var. Kale “Dinosaur”), Lantana camara (White Lantana), and Pisum sativum var. saccharatum (Snow pea) (Refer to Tables 4A and 4B for plant species identification). The only difference between Trials 31A and 31B was the composition of the proprietary adjuvant mix employed for each trial. The adjuvants for the “A” series were urea and […] silicone surfactant (Loveland Products). The adjuvants for the “B” series were urea and LI700 penetrant (Loveland Products). Solutions 1 A & B (S-1A, S-1B) correspond to a 2.0 molar solution of potassium acetate, pH 5.01 achieved with citric acid. S-2 is a similar solution of 1.5 molarity, pH 5.00. S-3 is a similar solution of 1.0 molarity, pH 4.97. (Refer to Tables 6A and 6B for trial solutions, details and results).
# (§4) The majority of greenhouse trials conducted to date have been of one basic design: • 1. […] Plants are sprayed with the experimental formulation, always in late afternoon (greenhouse tests), or in early morning (field tests), are observed over as many as several weeks, and their visible state of decline scored by the same examiner on a 9 points system relying on visual effects of toxicity. […]
# [5] = test system: Pasture Blend 2, Allium ampeloprasum (Leek), Brassica oleracea (Kale), Lantana camara, Pisum sativum var. saccharatum (Snow pea) (P2, 1, 5, 16, 23); test: Trial 31B: greenhouse foliar spray trial, adjuvant mix B, visual toxicity scoring; format: in vivo; conditions: 2.0 M; day 4
# Description: as §3, §4
# [6] = test system: Brassica oleracea (Kale), Dichondra repens, Fragaria x ananassa (Strawberry), Pasture Blend 2, Rosemarina officinalis (Rosemary) (5, 11b, 13, 22, 23b); test: Trial 47: greenhouse foliar spray trial, visual toxicity scoring; format: in vivo
# Description: as §1, §2
# In Trial 47, the herbicides comprised K-acetate; molarity range from 1.0-2.5; pH 5.03-5.05 with glacial acetic acid; proprietary adjuvant mix. Ref. Lab-2, p. 42. Test plants (ref Tables 4A and 4B):5, 11b, 13, 22, 23b
# S-1 corresponds to the highest concentration of active nutrient tested, S-4 corresponds to the lowest concentration of nutrient tested, and […] represent intermediate levels. The data are graphically presented below in FIG. 8.
# [7] = test system: mature field weeds; test: Trial 50: field test, visual toxicity scoring; format: in vivo
# Description: as §1, §2
# In Trial 50, the herbicides comprised K-acetate; molarity range from 1.5, 2.0 and 2.5; pH 5.0 with citric acid; proprietary adjuvant mix. Ref. Lab-2, p. […] Test plants were mature field weeds.
# S-1 corresponds to the highest concentration of active nutrient tested, S-3 corresponds to the lowest concentration of nutrient tested, and S-2 represent an intermediate level. The data are graphically presented below in FIG. 11.
# [8] = test system: all weeds: Common purslane, Barnyard grass, Feather fingergrass; conditions: Day 4
# Description: as §1, with “Standard techniques to reduce experimental error are employed including use of controls; standard spray application pressures; standardized growing conditions, growing medium, containers, and source irrigation water; and preparation and shipping of samples for laboratory analysis according to required standard laboratory protocols. • 3.” left out, “(Table 5.)” left out
# [9] = test system: Viola x wittockiana (Viola), Antirrhinum majus (Snapdragon), Cineraria meritima (Dusty miller), Cymbalaria aequitriloba (Cymbalaria); test: Trial 56: greenhouse foliar spray trial, visual toxicity scoring; format: in vivo; conditions: for phytotoxic control (in words): 1.5 molarity
# Description: as §1, §2
compound,measurement,setting,value
"CC(=O)[O-].[K+] [K-acetate, Potassium acetate]",average toxicity score,"[1]; 1.0M, Day 7 (so in the source)",4.3
same,average toxicity score,"[1]; 1.0M, Day 11",4.0
same,average toxicity score,"[1]; 2.0M, Day 1",4.0
same,average toxicity score,"[1]; 2.0M, Day 11",4.7
same,average toxicity score,"[1]; […], Day 1",4
same,average toxicity score,"[1]; […], Day 11",4.8
same,phytotoxic results (in words),"[2]; 1.0M, Days 3-7",strong phytotoxic results
same,average toxicity score,"[2]; 2.0M, Day 5",4.3
same,average toxicity score,"[2]; 2.0M, Day 7",4.4
same,average toxicity score,"[2]; […], Day 5",4.1
same,average toxicity score,"[2]; […], Day 7",4.1
same,phytotoxic effect (in words),[3]; pH 4.3,severe-to-fatal
same,phytotoxic effect (in words),[3]; pH 5.0,severe-to-fatal
same,average toxicity score,[4],4.4
same,toxicity level (in words),[5],severe-to-fatal
same,average toxicity score,"[6]; 1.0M, second value listed (days not given)",4.4
same,average toxicity score,"[6]; 1.0M, third value listed (days not given)",4.8
same,average toxicity score,"[6]; 2.5M, Day 5",4.5
same,average toxicity score,"[6]; 2.5M, Day 9",4.8
same,average toxicity score,"[6]; 2.5M, Day 14",4.9
same,average toxicity score,"[6]; […] (so in the source), Day 5",4.0
same,average toxicity score,"[6]; […] (so in the source), Day 9",4.8
same,average toxicity score,"[6]; […] (so in the source), Day 14",5.0
same,average toxicity score,"[7]; 2.0M, Day 3",3.6
same,average toxicity score,"[7]; 2.0M, Day 10",3.6
same,average toxicity score,"[7]; 2.5M, Day 3",2.8
same,average toxicity score,"[7]; 2.5M, Day 10",2.8
same,phytotoxicity (in words),[7]; 2.5 molarity,less phytotoxicity than lower molarities
same,phytotoxic control (in words),[8],strong to excellent phytotoxic control
same,appearance of treated plants,"[9]; 1.5 molar, last observed on Day 16",appeared dead with no regrowth
same,phytotoxic control (in words),[9]; Day 3,strong phytotoxic control
same,phytotoxic control (in words),[9]; Day 4 through Day 15,excellent phytotoxic control
